According to article PMC5552351, “Bacteriological profiling of diphenylureas as a novel class of antibiotics against methicillin-resistant Staphylococcus aureus” (PLoS ONE, 2017):
≈ marks a conversion by molar mass, not a printed value.

Experiments:
MRSA USA400 (NRS123) [1] = assay: MIC in presence and absence of human serum albumin; type: cell-based, Staphylococcus aureus; details: for MIC: Staphylococcus aureus, TSB
Method: The broth microdilution assay presented above was used to assess if compounds 1 and 2 bind to a major component of blood (human serum albumin) thus limiting the free fraction of drug available to exert its antibacterial effect. […] CaCl2 ([…]) was added to wells containing daptomycin, per the CLSI guidelines.

Bacillus subtilis = assay: Bacterial Cytological Profiling (BCP); type: cell-based; details: two hours, LB-MSM osmotically buffered media, 37 °C
Method: B. subtilis cells were grown in Luria Bertani (LB) medium at 37 °C until the optical density at 600 nm (OD600) was ~0.20. Cells were then left untreated or treated with compound 1 or control antibiotics in the presence of methylsulfonylmethane (MSM), as described previously. After two hours, cells were stained with FM 4−64 (1 μg/mL) to visualize cell membranes; DAPI (1 μg/ml) to visualize DNA, and SYTOX Green (1 μg/mL), a vital stain which is normally excluded from cells with an intact membrane but brightly stains cells that are lysed. Images were collected using a Delta Vision Spectris Deconvolution microscope, as described previously.

MRSA USA400 (NRS123) [2] = assay: multi-step resistance selection; type: cell-based, Staphylococcus aureus; details: for increase in MIC after fourteen passages: fourteen passages over two weeks; for MIC: Staphylococcus aureus, read-out: initial MIC
Method: To assess MRSA’s ability to develop resistance to the diphenylurea compounds after repeated exposure, a multi-step resistance selection experiment was conducted. […] Resistance was classified as a greater than four-fold increase in the initial MIC, as reported elsewhere.

MRSA USA300 (NRS384) = assay: time-kill assay; type: cell-based, Staphylococcus aureus; details: 4 × MIC
[3] = system: clinically-relevant strains of MRSA and VRSA; assay: broth microdilution MIC/MBC, panel summary; type: cell-based; details: Staphylococcus aureus, read-out: concentration inhibiting growth of MRSA isolates (MIC)
Method: (§1) The broth microdilution assay was employed to determine the MIC of compounds 1, 2, and vancomycin against five MRSA strains, four VRSA strains, one highly mupirocin-resistant S. aureus strain, one biofilm-forming S. aureus (ATCC 6538) strain, and one biofilm-forming methicillin-resistant S. epidermidis strain, as per the guidelines of the Clinical and Laboratory Standards Institute (CLSI). […] The MBC was determined by plating an aliquot (5 μL) from wells with no growth onto TSA plates. Plates were incubated at 37 °C for 19 hours before recording the MBC (concentration where no growth was observed on TSA plates).

S. epidermidis NRS101 = assay: broth microdilution MIC; type: cell-based; details: Staphylococcus epidermidis, NRS101
Method: as §1

S. aureus ATCC 6538 = assay: broth microdilution MIC; type: cell-based; details: Staphylococcus aureus, ATCC6538
Method: as §1

[4] = system: S. aureus ATCC 6538 biofilm; assay: biofilm mass disruption, crystal violet reporter assay; type: cell-based, Staphylococcus aureus; details: all concentrations tested
Method: (§2) Compounds 1, 2, and vancomycin were examined for their ability to eradicate mature staphylococcal biofilm using the microtiter dish biofilm formation assay. S. epidermidis NRS101 and S. aureus ATCC 6538 were selected as the test organisms given their ability to form strong adherent biofilm. An overnight culture of bacteria was diluted (1:100 in TSB + 1% glucose) and transferred to a 96-well plate. The plate was incubated for 24 hours at 37 °C in order to form adherent biofilm on the surface of the plate wells. The medium containing the bacterial suspension was removed and the biofilm was washed with sterile PBS to remove planktonic cells. Compounds 1, 2, or vancomycin (from 128 to 1 μg/mL), in triplicate, in TSB were incubated with the biofilm for 24 hours at 37 °C.
(§3) Compounds were subsequently removed. The biofilm was washed with PBS and then stained with 1% (w/v) crystal violet for 40 minutes. The stain was removed and wells were washed with sterile PBS. Wells were next decolorized using 95% ethanol. The optical density of each well at 595 nm was measured using a microplate reader.

[5] = system: S. epidermidis NRS101 biofilm; assay: as above; type: cell-based, Staphylococcus epidermidis; details: 24-hour treatment
Method: as §2, §3

VRS10 [6] = assay: microbe, parasite or virus in culture; type: cell-based, Staphylococcus aureus; details: Staphylococcus aureus, read-out: MIC of vancomycin
Method: (§4) CAMHB was inoculated with strain VRS4 or strain VRS10 (5×10^5 CFU/mL), as described previously, with the following modifications. Aliquots ([…]) of the bacterial suspension were divided into micro-centrifuge tubes and compounds 1 or 2 (at ½ × MIC) were introduced into each tube. After 30 minutes of incubation at room temperature, samples from each tube were transferred to a new micro-centrifuge tube, prior to addition of vancomycin (at 128 μg/mL). Plates containing the test agents and bacteria were then incubated at 37 °C for 20–22 hours after which the MIC value was determined. A fold-reduction was calculated by comparing the MIC of vancomycin compared to the MIC of vancomycin given in combination with compounds 1 or 2 (at ½ × MIC).

VRS4 [7] = assay: microbe, parasite or virus in culture; type: cell-based, Staphylococcus aureus; details: Staphylococcus aureus, read-out: MIC of vancomycin
Method: as §4

[8] = system: S. aureus NRS107 (RN4220); assay: accumulation of UDP-N-acetylmuramyl pentapeptide (HPLC-MS); type: cell-based, Staphylococcus aureus; details: 10 × MIC, 30 minutes
Method: The accumulation of UDP-N-acetylmuramyl pentapeptide was detected using a procedure described in a previous study, with the following modifications. S. aureus NRS107 (RN4220), in early logarithmic growth stage (OD600 ~ 0.60), was incubated with 130 μg/mL chloramphenicol for 15 minutes at 37°C. […] Untreated samples served as a negative control. Samples were centrifuged at 10,000 rpm for five minutes, the supernatant discarded, and the pellet re-suspended in sterile deionzined water (1 mL). The pellet was boiled at […] for 30 minutes before samples were chilled on ice for 10 minutes. UDP-N-acetylmuramyl-pentapeptide was measured using an Agilent High Performance Liquid Chromatography coupled to a time-of-flight Mass Spectrometer (HPLC-MS). A Waters XBridge Phenyl (2.1 × 100 mm, 3.5 μm) chromatography column was used, with mobile phases of water, 0.1% formic acid (Buffer A) and acetonitrile, 0.1% formic acid (Buffer B). A gradient of 5–20% Buffer B over 14 minutes was used, with a flow rate of 0.3 mL/min. An electrospray source was used, in positive ionization mode. Extracted Ion Chromatograms (EIC) were generated at a mass-to-charge ratio (m/z) of 1150.3588 (20 ppm window). Mass error for UDP-N-acetylmuramyl-pentapeptide was <1 ppm.

MRSA NRS123 (USA400) = assay: broth microdilution MIC/MBC; type: cell-based; details: Staphylococcus aureus
Method: as §1

VRS10 [9] = assay: broth microdilution MIC/MBC; type: cell-based; details: Staphylococcus aureus
Method: as §1

MRSA NRS384 (USA300) = assay: broth microdilution MIC/MBC; type: cell-based; details: Staphylococcus aureus
Method: as §1

S. aureus NRS107 = assay: broth microdilution MIC/MBC; type: cell-based; details: Staphylococcus aureus, NRS107
Method: as §1

VRS7 = assay: broth microdilution MIC/MBC; type: cell-based; details: Staphylococcus aureus
Method: as §1

MRSA NRS483 (USA1000) = assay: broth microdilution MIC/MBC; type: cell-based; details: Staphylococcus aureus
Method: as §1

MRSA NRS484 (USA1100) = assay: broth microdilution MIC/MBC; type: cell-based; details: Staphylococcus aureus
Method: as §1

VRS4 [10] = assay: broth microdilution MIC/MBC; type: cell-based; details: Staphylococcus aureus
Method: as §1

VRS11a = assay: broth microdilution MIC/MBC; type: cell-based; details: Staphylococcus aureus
Method: as §1

MRSA NRS387 (USA800) = assay: broth microdilution MIC/MBC; type: cell-based; details: Staphylococcus aureus
Method: as §1

[11] = system: S. epidermidis NRS101 biofilm; assay: bacterial CFU inside mature biofilm post-treatment; type: cell-based, Staphylococcus epidermidis; details: 24 hours
Method: as §2
(§5) For enumeration of viable CFU inside the biofilm, compounds were removed, wells were washed with sterile PBS, and treated with 0.25% Trypsin-2.21 mM EDTA solution as described elsewhere. The solution containing cells was transferred to a 96-well plate, serially diluted in PBS, and plated on TSA. Plates were incubated at 37 °C for 19 hours before viable CFU were counted. Data are presented as average log10(CFU/mL) of bacteria present in the biofilm post-treatment.

[12] = system: S. aureus ATCC 6538 biofilm; assay: bacterial CFU inside mature biofilm post-treatment; type: cell-based, Staphylococcus aureus; details: 64 μg/mL, 24 hours
Method: as §2, §5

[13] = 4% human serum albumin, read-out: MIC vs. MRSA USA400 (+HSA)
[14] = without human serum albumin, read-out: MIC vs. MRSA USA400 (-HSA)

## CCCCCCCCCC(=O)N[C@@H](Cc1c[nH]c2ccccc12)C(=O)N[C@H](CC(N)=O)C(=O)N[C@@H](CC(=O)O)C(=O)N[C@@H]1C(=O)NCC(=O)N[C@@H](CCCN)C(=O)N[C@@H](CC(=O)O)C(=O)N[C@H](C)C(=O)N[C@@H](CC(=O)O)C(=O)NCC(=O)N[C@H](CO)C(=O)N[C@@H]([C@H](C)CC(=O)O)C(=O)N[C@@H](CC(=O)c2ccccc2N)C(=O)O[C@@H]1C [Daptomycin, daptomycin, reference compound]
MRSA USA400 (NRS123) [1]; [13]
  MIC: 64 µg/mL (≈ 39.5 µM)
MRSA USA400 (NRS123) [1]; [14]
  MIC: 2 µg/mL (≈ 1.23 µM)

## ramoplanin
Bacillus subtilis
  cytological profile (cell morphology): bulges and misshapen cells

## Cc1onc(-c2ccccc2)c1C(=O)N[C@@H]1C(=O)N2[C@@H]1SC(C)(C)[C@@H]2C(=O)O [oxacillin]
Bacillus subtilis
  cytological profile (cell morphology): bulges and misshapen cells

## N[C@@H]1CON=C1O [D-cycloserine]
Bacillus subtilis
  cytological profile (cell morphology): bulges and misshapen cells

## CC(=O)NC[C@H]1CN(c2ccc(N3CCOCC3)c(F)c2)C(=O)O1 [Linezolid, linezolid, reference compound]
MRSA USA400 (NRS123) [2]; MRSA USA400 (NRS123)
  increase in MIC after fourteen passages: one-fold
MRSA USA400 (NRS123) [2]
  MIC: 2 µg/mL (≈ 5.93 µM)
MRSA USA400 (NRS123) [1]; MRSA USA400, 4% human serum albumin vs none
  increase in MIC in the presence of HSA: remained unchanged
MRSA USA400 (NRS123) [1]; [13]
  MIC: 1 µg/mL (≈ 2.96 µM)
MRSA USA400 (NRS123) [1]; [14]
  MIC: 1 µg/mL (≈ 2.96 µM)

## CN[C@H](CC(C)C)C(=O)N[C@H]1C(=O)N[C@@H](CC(N)=O)C(=O)N[C@H]2C(=O)N[C@H]3C(=O)N[C@H](C(=O)N[C@H](C(=O)O)c4cc(O)cc(O)c4-c4cc3ccc4O)[C@H](O)c3ccc(c(Cl)c3)Oc3cc2cc(c3O[C@@H]2O[C@H](CO)[C@@H](O)[C@H](O)[C@H]2O[C@H]2C[C@](C)(N)[C@H](O)[C@H](C)O2)Oc2ccc(cc2Cl)[C@H]1O [Vancomycin, vancomycin, reference compound]
MRSA USA300 (NRS384)
  time to completely eradicate a high inoculum of MRSA (~10^6 CFU/mL): 24 hours
[3]
  MIC: 0.5 to 1 µg/mL (≈ 0.345 to 0.69 µM)
S. epidermidis NRS101
  MIC: 1 µg/mL (≈ 0.69 µM)
S. aureus ATCC 6538
  MIC: 0.5 µg/mL (≈ 0.345 µM)
[4]
  change in optical density of S. aureus biofilm (biofilm mass): no change
[5]; 128 μg/mL, untreated control OD595 = 4.00
  S. epidermidis biofilm mass, OD595: 3.80
[5]; 8 to 64 μg/mL, vs untreated control
  reduction in S. epidermidis biofilm mass: no significant reduction
VRS10 [6]
  MIC: 512 µg/mL
VRS4 [7]
  MIC: 512 µg/mL
[8]
  UDP-N-acetylmuramyl pentapeptide accumulation: notable increase
MRSA NRS123 (USA400)
  MBC: 1 µg/mL (≈ 0.69 µM)
  MIC: 1 µg/mL (≈ 0.69 µM)
VRS10 [9]
  MBC: > 64 µg/mL
  MIC: > 64 µg/mL
MRSA NRS384 (USA300)
  MBC: 0.5 µg/mL (≈ 0.345 µM)
  MIC: 0.5 µg/mL (≈ 0.345 µM)
S. aureus NRS107
  MBC: 2 µg/mL (≈ 1.38 µM)
  MIC: 1 µg/mL (≈ 0.69 µM)
VRS7
  MBC: > 64 µg/mL
  MIC: 64 µg/mL (≈ 44.2 µM)
MRSA NRS483 (USA1000)
  MBC: 1 µg/mL (≈ 0.69 µM)
  MIC: 1 µg/mL (≈ 0.69 µM)
MRSA NRS484 (USA1100)
  MBC: 2 µg/mL (≈ 1.38 µM)
  MIC: 1 µg/mL (≈ 0.69 µM)
VRS4 [10]
  MBC: > 64 µg/mL
  MIC: 64 µg/mL (≈ 44.2 µM)
VRS11a
  MBC: > 64 µg/mL
  MIC: > 64 µg/mL
MRSA NRS387 (USA800)
  MBC: 1 µg/mL (≈ 0.69 µM)
  MIC: 0.5 µg/mL (≈ 0.345 µM)
[11]; 64 μg/mL
  reduction in bacterial CFU within S. epidermidis biofilm: 1.4 log10
[11]; 128 μg/mL
  reduction in bacterial CFU within S. epidermidis biofilm: 3.14 log10
[12]
  reduction in bacterial CFU within S. aureus biofilm: 1.0 log10

## O=C(O)c1cn(C2CC2)c2cc(N3CCNCC3)c(F)cc2c1=O [ciprofloxacin]
MRSA USA400 (NRS123) [2]; MRSA USA400 (NRS123)
  increase in MIC after fourteen passages: seven-fold
MRSA USA400 (NRS123) [2]; MRSA USA400 (NRS123), seven passages
  increase in MIC after seven passages: three-fold
MRSA USA400 (NRS123) [2]
  MIC: 1 µg/mL (≈ 3.02 µM)

## Cc1onc(-c2ccccc2Cl)c1C(=O)N[C@@H]1C(=O)N2[C@@H]1SC(C)(C)[C@@H]2C(=O)O [cloxacillin]
Bacillus subtilis
  cytological profile (cell morphology): bulges at the poles of the cells
